Test results published in patent US8247211B2, “Glycopeptide antibiotics” (American Cyanamid Company, priority 2001, dated 2012).

What was measured:
Assay in all cases: In vitro antibacterial evaluation: minimum inhibitory concentration (MIC), broth dilution method
Assay type in all cases: cell-based
Conditions in all cases: 18 hours at 35° C.
Escherichia coli = system: Escherichia coli
Method in brief: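 Using Muller-Hinton II […] and an inoculum of 5×10^5 CFU/mL, antibiotic dilutions from 64 down to 0.06 μg/mL were tested following NCCLS M7-A2. The MIC is the lowest concentration inhibiting growth, including in methicillin-, penicillin- or vancomycin-resistant clinical isolates.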

Staphylococcus sp. = system: Staphylococcus sp.
Method in brief: (§1)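 Broth dilution per NCCLS M7-A2 in Muller-Hinton II […], inoculum 5×10^5 CFU/mL, antibiotic tested over 64-0.06 μg/mL. MIC is taken as the lowest concentration that inhibits growth. Panel includes recent clinical isolates resistant to methicillin, penicillin and/or vancomycin.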

Enterococcus sp. = system: Enterococcus sp.
Method in brief: as §1

Streptococcus sp. = system: Streptococcus sp.
Method in brief: as §1

[1] = Coagulase Negative Staphylococcus (GC 4547)
[2] = Coagulase Negative Staphylococcus (GC 4548)
[3] = Coagulase Negative Staphylococcus (GC 4549)
[4] = Coagulase Negative Staphylococcus (GC 4551)
[5] = Coagulase Negative Staphylococcus (ID-3941)
[6] = Staphylococcus aureus (ATCC 29213)
[7] = Staphylococcus aureus (GC 1131)
[8] = Staphylococcus aureus (GC 4541)
[9] = Staphylococcus aureus (GC 4542)
[10] = Staphylococcus aureus (GC 4544)
[11] = Staphylococcus aureus (GC 4545)
[12] = Staphylococcus aureus-SMITH (GC 4543)
[13] = Staphylococcus haemolyticus (GC 4546)
[14] = broth dilution, strain ATCC 29213
[15] = Enterococcus faecalis (ATCC 29212)
[16] = Enterococcus faecalis (GC 2242)
[17] = Enterococcus faecalis (GC 4552)
[18] = Enterococcus faecalis (GC 4553)
[19] = Enterococcus faecalis (GC 4554)
[20] = broth dilution, strain ATCC 29212
[21] = Streptococcus agalactiae (GC 4564)
[22] = Streptococcus pneumoniae (GC 4565)
[23] = Streptococcus pyogenes (ID-3187)

β-O-[(Pentylamino)carbonyl]-cyclo[glycyl-β-methylphenylalanyl-O-(4-O-hexopyranosylhexopyranosyl)tyrosyl-3-(2-iminoimidazolidin-4-yl)seryl-3-(3-hexopyranosyl-2-iminoimidazolidin-4-yl)serylseryl] [Example 251a]
32 µg/mL: MIC Coagulase Negative Staphylococcus (GC 4549) (Staphylococcus sp.; [3]) | MIC Coagulase Negative Staphylococcus (GC 4549) (Staphylococcus sp.; broth dilution, strain GC 4549) | MIC Streptococcus agalactiae (GC 4564) (Streptococcus sp.; [21]) | MIC Streptococcus agalactiae (GC 4564) (Streptococcus sp.; broth dilution, strain GC 4564)
>64 µg/mL: MIC Escherichia coli (ATCC 25922) (Escherichia coli) | MIC Escherichia coli (GC 4559) (Escherichia coli) | MIC Coagulase Negative Staphylococcus (GC 4551) (Staphylococcus sp.; [4]) | MIC Staphylococcus aureus (ATCC 29213) (Staphylococcus sp.; [6]) | MIC Staphylococcus aureus (GC 1131) (Staphylococcus sp.; [7]) | MIC Staphylococcus aureus (GC 4544) (Staphylococcus sp.; [10]) | MIC Staphylococcus aureus (ATCC 29213) (Staphylococcus sp.; [14]) | MIC Staphylococcus aureus (GC 1131) (Staphylococcus sp.; broth dilution, strain GC 1131) | MIC Staphylococcus aureus (GC 4544) (Staphylococcus sp.; broth dilution, strain GC 4544) | MIC Coagulase Negative Staphylococcus (GC 4551) (Staphylococcus sp.; broth dilution, strain GC 4551) | MIC Enterococcus avium (GC 4558) (Enterococcus sp.; Enterococcus avium (GC 4558)) | MIC Enterococcus faecalis (ATCC 29212) (Enterococcus sp.; [15]) | MIC Enterococcus faecalis (GC 2242) (Enterococcus sp.; [16]) | MIC Enterococcus faecalis (GC 4552) (Enterococcus sp.; [17]) | MIC Enterococcus faecalis (GC 4553) (Enterococcus sp.; [18]) | MIC Enterococcus faecalis (GC 4554) (Enterococcus sp.; [19]) | MIC Enterococcus faecium (GC 2243) (Enterococcus sp.; Enterococcus faecium (GC 2243)) | MIC Enterococcus faecium (GC 4556) (Enterococcus sp.; Enterococcus faecium (GC 4556)) | MIC Enterococcus faecalis (ATCC 29212) (Enterococcus sp.; [20]) | MIC Enterococcus faecalis (GC 2242) (Enterococcus sp.; broth dilution, strain GC 2242) | MIC Enterococcus faecium (GC 2243) (Enterococcus sp.; broth dilution, strain GC 2243) | MIC Enterococcus faecalis (GC 4552) (Enterococcus sp.; broth dilution, strain GC 4552) | MIC Enterococcus faecalis (GC 4553) (Enterococcus sp.; broth dilution, strain GC 4553) | MIC Enterococcus faecalis (GC 4554) (Enterococcus sp.; broth dilution, strain GC 4554) | MIC Enterococcus faecium (GC 4556) (Enterococcus sp.; broth dilution, strain GC 4556) | MIC Enterococcus avium (GC 4558) (Enterococcus sp.; broth dilution, strain GC 4558)
8 µg/mL: MIC Escherichia coli (GC 4560) (Escherichia coli) | MIC Streptococcus pneumoniae (GC 4565) (Streptococcus sp.; [22]) | MIC Streptococcus pneumoniae (GC 4565) (Streptococcus sp.; broth dilution, strain GC 4565)
64 µg/mL: MIC Coagulase Negative Staphylococcus (GC 4547) (Staphylococcus sp.; [1]) | MIC Coagulase Negative Staphylococcus (GC 4548) (Staphylococcus sp.; [2]) | MIC Staphylococcus aureus (GC 4541) (Staphylococcus sp.; [8]) | MIC Staphylococcus aureus (GC 4542) (Staphylococcus sp.; [9]) | MIC Staphylococcus aureus (GC 4545) (Staphylococcus sp.; [11]) | MIC Staphylococcus aureus-SMITH (GC 4543) (Staphylococcus sp.; [12]) | MIC Staphylococcus haemolyticus (GC 4546) (Staphylococcus sp.; [13]) | MIC Staphylococcus aureus (GC 4541) (Staphylococcus sp.; broth dilution, strain GC 4541) | MIC Staphylococcus aureus (GC 4542) (Staphylococcus sp.; broth dilution, strain GC 4542) | MIC Staphylococcus aureus-SMITH (GC 4543) (Staphylococcus sp.; broth dilution, strain GC 4543) | MIC Staphylococcus aureus (GC 4545) (Staphylococcus sp.; broth dilution, strain GC 4545) | MIC Staphylococcus haemolyticus (GC 4546) (Staphylococcus sp.; broth dilution, strain GC 4546) | MIC Coagulase Negative Staphylococcus (GC 4547) (Staphylococcus sp.; broth dilution, strain GC 4547) | MIC Coagulase Negative Staphylococcus (GC 4548) (Staphylococcus sp.; broth dilution, strain GC 4548)
16 µg/mL: MIC Coagulase Negative Staphylococcus (ID-3941) (Staphylococcus sp.; [5]) | MIC Coagulase Negative Staphylococcus (ID-3941) (Staphylococcus sp.; broth dilution, strain ID-3941) | MIC Enterococcus faecium (GC 4557) (Enterococcus sp.; Enterococcus faecium (GC 4557)) | MIC Enterococcus faecium (GC 4557) (Enterococcus sp.; broth dilution, strain GC 4557) | MIC Streptococcus pyogenes (ID-3187) (Streptococcus sp.; [23]) | MIC Streptococcus pyogenes (ID-3187) (Streptococcus sp.; broth dilution, strain ID-3187)

γ-O-[(Dodecylamino)carbonyl]-cyclo[glycyl-β-methylphenylalanyl-O-(4-O-hexopyranosylhexopyranosyl]tyrosyl-3-(2-iminoimidazolidin-4-yl)seryl-3-(3-hexopyranosyl-2-iminoimidazolidin-4-yl)serylseryl] [Example 254b]
16 µg/mL: MIC Escherichia coli (GC 4560) (Escherichia coli)
<0.5 µg/mL: MIC Streptococcus agalactiae (GC 4564) (Streptococcus sp.; [21]) | MIC Streptococcus pneumoniae (GC 4565) (Streptococcus sp.; [22]) | MIC Streptococcus pyogenes (ID-3187) (Streptococcus sp.; [23]) | MIC Streptococcus agalactiae (GC 4564) (Streptococcus sp.; broth dilution, strain GC 4564) | MIC Streptococcus pneumoniae (GC 4565) (Streptococcus sp.; broth dilution, strain GC 4565) | MIC Streptococcus pyogenes (ID-3187) (Streptococcus sp.; broth dilution, strain ID-3187)
64 µg/mL: MIC Escherichia coli (ATCC 25922) (Escherichia coli) | MIC Escherichia coli (GC 4559) (Escherichia coli)
8 µg/mL: MIC Coagulase Negative Staphylococcus (GC 4547) (Staphylococcus sp.; [1]) | MIC Staphylococcus aureus (ATCC 29213) (Staphylococcus sp.; [6]) | MIC Staphylococcus aureus (GC 4542) (Staphylococcus sp.; [9]) | MIC Staphylococcus aureus (GC 4544) (Staphylococcus sp.; [10]) | MIC Staphylococcus aureus (GC 4545) (Staphylococcus sp.; [11]) | MIC Staphylococcus haemolyticus (GC 4546) (Staphylococcus sp.; [13]) | MIC Staphylococcus aureus (ATCC 29213) (Staphylococcus sp.; [14]) | MIC Staphylococcus aureus (GC 4542) (Staphylococcus sp.; broth dilution, strain GC 4542) | MIC Staphylococcus aureus (GC 4544) (Staphylococcus sp.; broth dilution, strain GC 4544) | MIC Staphylococcus aureus (GC 4545) (Staphylococcus sp.; broth dilution, strain GC 4545) | MIC Staphylococcus haemolyticus (GC 4546) (Staphylococcus sp.; broth dilution, strain GC 4546) | MIC Coagulase Negative Staphylococcus (GC 4547) (Staphylococcus sp.; broth dilution, strain GC 4547) | MIC Enterococcus faecalis (ATCC 29212) (Enterococcus sp.; [15]) | MIC Enterococcus faecalis (GC 2242) (Enterococcus sp.; [16]) | MIC Enterococcus faecalis (GC 4552) (Enterococcus sp.; [17]) | MIC Enterococcus faecium (GC 4556) (Enterococcus sp.; Enterococcus faecium (GC 4556)) | MIC Enterococcus faecium (GC 4557) (Enterococcus sp.; Enterococcus faecium (GC 4557)) | MIC Enterococcus faecalis (ATCC 29212) (Enterococcus sp.; [20]) | MIC Enterococcus faecalis (GC 2242) (Enterococcus sp.; broth dilution, strain GC 2242) | MIC Enterococcus faecalis (GC 4552) (Enterococcus sp.; broth dilution, strain GC 4552) | MIC Enterococcus faecium (GC 4556) (Enterococcus sp.; broth dilution, strain GC 4556) | MIC Enterococcus faecium (GC 4557) (Enterococcus sp.; broth dilution, strain GC 4557)
2 µg/mL: MIC Coagulase Negative Staphylococcus (GC 4548) (Staphylococcus sp.; [2]) | MIC Coagulase Negative Staphylococcus (ID-3941) (Staphylococcus sp.; [5]) | MIC Coagulase Negative Staphylococcus (GC 4548) (Staphylococcus sp.; broth dilution, strain GC 4548) | MIC Coagulase Negative Staphylococcus (ID-3941) (Staphylococcus sp.; broth dilution, strain ID-3941)
4 µg/mL: MIC Coagulase Negative Staphylococcus (GC 4549) (Staphylococcus sp.; [3]) | MIC Coagulase Negative Staphylococcus (GC 4551) (Staphylococcus sp.; [4]) | MIC Staphylococcus aureus (GC 1131) (Staphylococcus sp.; [7]) | MIC Staphylococcus aureus (GC 4541) (Staphylococcus sp.; [8]) | MIC Staphylococcus aureus-SMITH (GC 4543) (Staphylococcus sp.; [12]) | MIC Staphylococcus aureus (GC 1131) (Staphylococcus sp.; broth dilution, strain GC 1131) | MIC Staphylococcus aureus (GC 4541) (Staphylococcus sp.; broth dilution, strain GC 4541) | MIC Staphylococcus aureus-SMITH (GC 4543) (Staphylococcus sp.; broth dilution, strain GC 4543) | MIC Coagulase Negative Staphylococcus (GC 4549) (Staphylococcus sp.; broth dilution, strain GC 4549) | MIC Coagulase Negative Staphylococcus (GC 4551) (Staphylococcus sp.; broth dilution, strain GC 4551) | MIC Enterococcus avium (GC 4558) (Enterococcus sp.; Enterococcus avium (GC 4558)) | MIC Enterococcus faecalis (GC 4553) (Enterococcus sp.; [18]) | MIC Enterococcus faecalis (GC 4554) (Enterococcus sp.; [19]) | MIC Enterococcus faecium (GC 2243) (Enterococcus sp.; Enterococcus faecium (GC 2243)) | MIC Enterococcus faecium (GC 2243) (Enterococcus sp.; broth dilution, strain GC 2243) | MIC Enterococcus faecalis (GC 4553) (Enterococcus sp.; broth dilution, strain GC 4553) | MIC Enterococcus faecalis (GC 4554) (Enterococcus sp.; broth dilution, strain GC 4554) | MIC Enterococcus avium (GC 4558) (Enterococcus sp.; broth dilution, strain GC 4558)
